Measurements from patent US20060263761A1, “Methods and compositions for beryllium-induced Disease” (priority 2005, published 2006).

How the values were obtained:
Type in all cases: cell-based, human
[1] = system: PBMCs (IL-2-producing cells); assay: IL-2 ELISPOT assay on PBMCs after BeSO4 exposure
Method: (§1) In one exemplary method, ELISPOT assays were performed using plates (ImmunoSpot M200, BD Biosciences Pharmingen) that were coated with, IFN-γ or IL-2 capture mAb (BD Biosciences Pharmingen) overnight and blocked with Blocking Solution containing RPMI 1640 supplemented with 10% heat-inactivated fetal bovine serum (Tissue Culture Biologicals, Tulare Calif.), 20 mM HEPES, 1 mM sodium pyruvate, 100 U/ml penicillin, 100 μg/ml streptomycin, and 2 mM L-glutamine (e.g. all from Life Technologies, Gaithersburg Md.) for 2 h at room temperature. Freshly isolated PBMCs (5×10^5 cells/well) were added to wells and incubated overnight at 37° C. in a humidified 5% CO2 atmosphere with medium, PHA, or BeSO4. ELISpot assays were performed in triplicate. The wells were washed, and IFN-γ or IL-2 detection mAbs (BD Biosciences Pharmingen) were added, and the proteins were visualized by successive additions of avidin-horseradish peroxidase and 3-amino-9-ethylcarbazole (AEC) substrate reagent (BD Biosciences Pharmingen). The ELISpot plates were analyzed using a for example a CTL Immunospot Analyzer (Cellular Technology Ltd., Cleveland, Ohio), and results are reported as mean±SD spot-forming units (SFU) per well minus background SFU.

[2] = system: CD4+ T cells; assay: Intracellular cytokine staining (IFN-γ, IL-2) by flow cytometry
Method: . Cells were stained with mAbs directed against CD4 and CD8 (BD Biosciences Pharmingen) followed by fixation, permeabilization, and staining with mAbs directed against IFN-γ and/or IL-2 (Caltag, Burlingame, Calif.). The lymphocyte population was identified using forward and 90° light scatter patterns, and fluorescence intensity was analyzed using a FACScaliber cytometer (Becton Dickinson) as previously described but any means known in the art may be used to identify this population.
For example, the ratio of IFN-γ- to IL-2-secreting cells determined by ELISPOT analysis was 2.7 (median; range, 0.5-167) for CBD patients (n=33) and 1.8 (median; range, 0.5-6.9) for BeS patients (n=18) (P=0.07). To further address this issue, intracellular cytokine staining was performed on blood from 11 of the 33 CBD subjects who had large enough populations (>0.04%) of circulating beryllium-specific CD4+ T cells to allow for evaluation of Th1-type cytokine expression after beryllium exposure in culture. […] IFN-γ and IL-2 expression in CD4− T cells was equal to background levels. In the peripheral blood, the beryllium-specific CD4+ T cells appeared equally divided into two groups: T cells capable of expressing both IFN-γ and IL 2 and another expressing only IFN-γ (FIG. 4B). Similar to T cells in the lung (12), almost no cells were detected that produced IL-2 in the absence of IFN-γ expression. In these eleven CBD patients, the median percentage of IFN-γ-expressing CD4+ T cells was 0.29% (range, 0.1%-1.1%) compared to 0.07% for IL-2 (0%-0.49%; P=0.007) (FIG. 4C).

[3] = system: PBMCs (IFN-γ-producing cells); assay: IFN-γ ELISPOT assay on PBMCs after BeSO4 exposure; conditions: for ratio of IFN-γ- to IL-2-secreting cells (median): ELISPOT; for subjects demonstrating beryllium-induced IFN-γ production: threshold >1.4 SFU
Method: as §1
In one exemplary method ELISPOT assays were performed on fresh PBMCs from 12 healthy control, 18 BeS and 33 CBD subjects (Table 1).

[4] = system: PBMCs; assay: Lymphocyte proliferation assay ([3H]thymidine, BeLPT)
Method: In one exemplary method, proliferation assays were performed using PBMCs (2.5×10^5 cells/well) cultured for 4-6 days in complete culture media containing RPMI 1640 supplemented with 10% heat-inactivated human serum (Gemini Bio-Products, Woodland Calif.) with the following stimulants: medium, 2.5 μg/ml phytohemagglutinin (PHA), 1×10^−4 M or 1×10^−5 M BeSO4 (example of one beryllium composition). The wells were pulsed with 1 μCi of [^3H] thymidine for 18 hours, and incorporation of radioactivity was determined by β-emission spectroscopy. Proliferation assays were performed in quadruplicate. The data are presented as stimulation index (SI) with a positive response defined as […]. Any other means known in the art for assessing proliferation of cells may be used.
In another exemplary method, PBMCs from healthy control, BeS, and CBD subjects described above were examined for beryllium-induced proliferation at the same time as the ELISPOT assays were performed. […] The median SI for PBMCs from BeS and CBD patients exposed to 1×10^−4 M BeSO4 was 2.8 (range, 0.5-42) and 3.5 (0.6-85) (P=0.49), respectively. The findings were similar when expressed as ΔCPM, with the median ΔCPM from BeS and CBD patients exposed to 1×10^−4 M BeSO4 being 917 (range, 0-36,355) and 1514 (range, 0-20,884), respectively (P=0.85). […] In one exemplary method, ELISPOT analysis for IFN-γ was able to detect the presence of beryllium-specific T cells in blood. […] In 6 BeS and 7 CBD subjects, the ELISPOT assay detected IFN-γ- and/or IL-2-secreting cells in response to beryllium exposure in culture while no beryllium-induced proliferation was detected at the time of the study. […] For example, in CBD patients, the median number of beryllium-induced, IFN-γ-expressing cells was 83 SFU (range, 0-645) in subjects with and 48 SFU (range, 10-112; P=0.3) in subjects without beryllium-induced proliferation. Beryllium-induced proliferation occurred in the absence of detectable cytokine secretion in only 2 CBD patients, while both ELISPOT analysis and proliferation assay were negative in 2 BeS and 3 CBD patients.

[5] = representative CBD subject, FIG. 4A, following beryllium exposure

O=S(=O)([O-])[O-].[Be+2] [BeSO4, Beryllium sulfate]
median number of IL-2-producing cells ([1]; BeS subjects): 2.8 SFU | median number of IL-2-producing cells ([1]; CBD patients): 16 SFU/5×10^5 cells | median number of IL-2-producing cells ([1]; normal control subjects): 0 SFU | median percentage of IFN-γ-expressing CD4+ T cells ([2]; eleven CBD patients): 0.29% | median percentage of IL-2-expressing CD4+ T cells ([2]; eleven CBD patients): 0.07% | CD4+ T cells expressing IFN-γ [2, 5]: 1.1% | CD4+ T cells expressing IL-2 [2, 5]: 0.5% | ratio of IFN-γ- to IL-2-secreting cells (median) ([3]; BeS patients (n=18)): 1.8 | median number of IFN-γ producing cells in blood ([3]; BeS subjects (n=18), 1×10^−4 M BeSO4): 6.3 SFU | subjects demonstrating beryllium-induced IFN-γ production ([3]; BeS subjects, 13 of 18, 1×10^−4 M BeSO4): 72% | patients with a positive ELISPOT assay ([3]; CBD and BeS subjects, 41 of 51): 80% | median number of IFN-γ producing cells in blood ([3]; CBD patients (n=33), 1×10^−4 M BeSO4): 52 SFU | ratio of IFN-γ- to IL-2-secreting cells (median) ([3]; CBD patients (n=33)): 2.7 | median number of beryllium-induced, IFN-γ-expressing cells ([3]; CBD patients with beryllium-induced proliferation): 83 SFU | median number of beryllium-induced, IFN-γ-expressing cells ([3]; CBD patients without beryllium-induced proliferation): 48 SFU | subjects demonstrating beryllium-induced IFN-γ production ([3]; CBD subjects, 28 of 33, 1×10^−4 M BeSO4): 85% | IFN-γ SFU (mean±SD) of the one healthy control with a positive response ([3]; healthy control subject, 1×10^−4 M BeSO4): 2.0±2.1 SFU per 5×10^5 cells | median number of IFN-γ producing cells in blood ([3]; normal control subjects (n=12), 1×10^−4 M BeSO4): 0.4 SFU | median number of IFN-γ producing cells in blood ([3]; treated CBD subjects, 1×10^−4 M BeSO4): 117 | median number of IFN-γ producing cells in blood ([3]; untreated CBD subjects, 1×10^−4 M BeSO4): 34 | patients with a positive proliferative response ([4]; BeS patients, 10 of 18, 1×10^−4 M BeSO4): 55% | median SI (stimulation index) ([4]; BeS patients, 1×10^−4 M BeSO4): 2.8 | median ΔCPM ([4]; BeS patients, 1×10^−4 M BeSO4): 917 | subjects with a positive beryllium-induced proliferative response (BeLPT) ([4]; CBD and BeS subjects, 33 of 51): 65% | patients with a positive proliferative response ([4]; CBD patients, 23 of 33, 1×10^−4 M BeSO4): 70% | median SI (stimulation index) ([4]; CBD patients, 1×10^−4 M BeSO4): 3.5 | median ΔCPM ([4]; CBD patients, 1×10^−4 M BeSO4): 1514 | median SI (stimulation index) ([4]; control subjects, 1×10^−4 M BeSO4): 0.5 | median SI (stimulation index) ([4]; control subjects, 1×10^−5 M BeSO4): 0.7
